Entries after “also recorded” stand apart in the source; their conditions may differ. Where two headings read alike, the source gives them in different places.
How the values were obtained:
SyPII [1] = biological target: T1, SyPII (Synechococcus elongatus, UniProt P0A3F4); assay: ITC binding of small effector molecules to cyanobacterial SyPII; design: species or system Synechococcus elongatus PCC 7942
T1 construct: Strep-tag; made in house
Protocol: (§1) To gain additional insights into the ligand binding properties of PpPII in comparison to cyanobacterial and chloroplastid PII proteins, isothermal titration calorimetry (ITC) experiments were performed using highly purified Strep-tagged or His-tagged recombinant PpPII, SyPII, CrPII, and PhyscoPII proteins (Supplementary Fig. S1) with different protein/ligand/ concentrations to determine the best fitting conditions of the binding model. The titration experiments were repeated with different protein preparations to confirm the reproducibility of the results. The raw isothermal data were fitted into one-binding site as well as three-sequential binding sites to define the best fitting model. Fitting using a one binding site model states an average Kd value for all available binding sites and the mean of the stoichiometry of bound ligands.
(§2) The ITC experiments were done using a VP-ITC microcalorimeter (MicroCal, LCC). All details for determination of binding constants for small effector molecules using ITC are fully described in the supplementary information. Heat isotherms of the dilution of the ligand in the cell buffer were collected in a blank run for each experiment in the absence of protein. The binding isotherms were calculated from received data and fitted to one-site and three-sequential binding sites models using the MicroCal ORIGIN software (Northampton) as described. All titrations were performed in duplicates with different purification batches of recombinant PII proteins. The association binding constant (Ka) was generated from the software by de-convolution and curve fitting. For calculation of dissociation constant (Kd), the Ka value was inversed.
(§3) Supplementary Information […]
(§4) Determination of Binding Constants for Small Effector Molecules using Isothermal […]
(§5) The binding of the small effector molecules to the recombinant PII proteins was tested using isothermal titration calarmity (ITC); VP-ITC microcalorimeter (MicroCal). All titrations were performed on 20°C using […] injection syringe with injection 6 µl or 10 µl of the tested ligands for 45 or 29 times, respectively into the cell (1.4 ml) with continuous stirring at 155 rpm. All tested ligands were high grade, prepared freshly in the same buffer of the protein and purchased from Sigma-Aldrich. Heat isotherms for the dilution of the ligand in the cell buffer were collected in a blank run in the absence of protein. The received calorimetric data were analyzed using MicroCal Origin software and fitted into one-site and three-sequential binding sites models, as indicated by the manufacture for calculation of binding isotherms9. For data reproducibility, the titrations were performed in duplicates with different purification batches of recombinant PII proteins. The association binding constant (Ka) was generated from the software by de-convolution and curve fitting. For calculation of dissociation constant (Kd), the Ka value was inversed. […]
For determination the binding isotherms of cyanobacterial SyPII protein, a strep-tagged recombinant protein (20 µM trimeric concentration) was overexpressed and used as described previously9, 15, in a buffer composed of 10 mM Hepes-NaOH, 50 mM KCl, 50 mM NaCl, and 1

CrPII = assay: ITC binding of small effector molecules to green algal CrPII; design: species or system Chlamydomonas reinhardtii
Protocol: as §1, §2, §3, §4, §5

[2] = biological target: ScNAGK in the presence of PpPII (Porphyra purpurea, UniProt P51254); assay: AGPR-coupled NAGK activity assay with PpPII; format: biochemical, Synechocystis sp. PCC 6803; Porphyra purpurea; conditions: 4 mM ADP with 1 mM ATP
Source text: All available structural information of PII proteins revelas that ATP and ADP bind to the same binding sites[2],[7]. When ATP and ADP are simultaneously present, they will compete for binding to the PII trimer. Since, the ATP/ADP binding site of the red algal PpPII protein is highly conserved (Fig. 1), competition between the nucleotides will occur. Since the activation of NAGK by PII is dependent on the ATP-ligated state of PII[9] and ADP inhibits PII-NAGK complex formation[9],[31], competition between ATP/ADP for PII binding can be monitored by measuring NAGK activity[31] under different ATP/ADP ratios. For this assay, we used an AGPR-coupled activity assay for NAGK[33], which allows measurement of NAGK activity in presence of ADP. Different concentrations of ADP were added to reaction mixtures containing either 1 mM or 2 mM ATP, in the absence or presence of PpPII (Fig. 8). Addition of ADP led to a monotonical and shallow decrease in the activity of ScNAGK at both fixed ATP concentration. […]
The change in NADPH absorbance was recorded at 340 nm as described previously[31],[33], in a reaction buffer composed of 50 mM potassium phosphate (pH 7.0), 50 mM KCl, 20 mM MgCl2, 0.2 mM NADPH and 0.5 mM DTT. […] The reaction was started by the addition of ScNAGK and was recorded for 10 min with a spectrophotometer (SPECORD 210 PLUS, Analytik Jena). Kinetic constants were calculated as descried above.

SyPII [3] = biological target: T1, SyPII; conditions: cited from earlier work

T1 sequence (P0A3F4 whole entry): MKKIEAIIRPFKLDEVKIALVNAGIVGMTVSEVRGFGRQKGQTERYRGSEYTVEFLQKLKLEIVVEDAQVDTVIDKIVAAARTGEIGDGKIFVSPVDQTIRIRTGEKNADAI
Sequence of ScNAGK in the presence of PpPII (P51254 whole entry): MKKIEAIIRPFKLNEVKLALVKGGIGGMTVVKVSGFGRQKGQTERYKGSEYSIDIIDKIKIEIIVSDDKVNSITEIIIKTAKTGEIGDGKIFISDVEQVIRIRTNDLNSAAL

For `Nc1ncnc2c1ncn2[C@@H]1O[C@H](COP(=O)(O)OP(=O)(O)O)[C@@H](O)[C@H]1O` [ADP], the “ADP concentration at which the enthalpy reached a maximum (biphasic titration curve)” value (SyPII [1]; ADP titrated in the presence of 1 mM 2-OG) was 80.0 ± 7.1 µM, the Kd (SyPII [1]; Average Kd (one-site binding model), in presence 2-OG (1 mM) and 150 µM ADP) was 45.8 ± 44 µM and the Kd (SyPII [1]; Kd1 (three-sites binding model), in presence 2-OG (1 mM) and 150 µM ADP) was 10.7 ± 1.9 µM. The Kd (SyPII [1]; Kd2 (three-sites binding model), in presence 2-OG (1 mM) and 150 µM ADP) was 26.4 ± 4.2 µM, the Kd (SyPII [1]; Kd3 (three-sites binding model), in presence 2-OG (1 mM) and 150 µM ADP) was 101 ± 103 µM and the “N, number of calculated binding sites (one-site binding model)” value (SyPII [1]; in presence 2-OG (1 mM) and 150 µM ADP) was 4.0. For the same compound, the “Average Kd (one-site binding model)” value (CrPII; in presence 2-OG (2 mM)) was “no ADP binding”, the “Kd1 (three-sites binding model)” value (CrPII; in presence 2-OG (2 mM)) was “No binding” and the “Kd2 (three-sites binding model)” value (CrPII; in presence 2-OG (2 mM)) was “No binding”. For the same compound, the “Kd3 (three-sites binding model)” value (CrPII; in presence 2-OG (2 mM)) was “No binding”, the “Average Kd (one-site binding model)” value (CrPII; titrant alone) was “unable to notice any binding; also recorded: No binding” and the “Kd1 (three-sites binding model)” value (CrPII; titrant alone) was “No binding”. The “Kd2 (three-sites binding model)” value (CrPII; titrant alone) was “No binding”, the “Kd3 (three-sites binding model)” value (CrPII; titrant alone) was “No binding” and the “ScNAGK activity in the presence of PpPII at the highest ADP/ATP ratio” value [2] was “as low as ScNAGK activity in the absence of PpPII”. For the same compound, the Kd (SyPII [3]; read-out: Kd1 (three-sites binding model), titrant alone, given in parentheses for comparison) was 10.6 µM, the Kd (SyPII [3]; read-out: Kd2 (three-sites binding model), titrant alone, given in parentheses for comparison) was 19.3 µM and the Kd (SyPII [3]; read-out: Kd3 (three-sites binding model), titrant alone, given in parentheses for comparison) was 133 µM.
